Source: paper PMC6222476 (Molecules : A Journal of Synthetic Chemistry and Natural …, 2018)
Read-outs that look alike come from different tables or passages of the source.

Legend:
[1] = system: IMR-32 neuroblastoma cell line; experiment: cells; assay type: cell-based, human; conditions: SRB assay, 48 h
Method: (§1) All the newly synthesized compounds were screened for their in vitro anticancer activity against six cancer cell lines: SK-MEL-2, MCF-7, IMR-32, MG-63, HT-29 and Hep-G2 by SRB assay, using adriamycin as a standard drug. All the synthesized derivatives 4(a–n) were also tested for their cytotoxic effect on normal cell lines i.e., NIH/3T3 (murine embryonic fibroblast by the SRB assay method. The cell lines were grown in RPMI 1640 medium containing 10% fetal bovine serum and 2 mM L-glutamine. For the present screening experiments, cells were inoculated into 96 well microtiter plates in 90 µL at 5000 cells per well. After cell inoculation, the microtiter plates were incubated at 37 °C, 5% CO2, 95% air and 100% relative humidity for 24 h prior to addition of experimental drugs. Experimental drugs were solubilized in appropriate solvent to prepare stock of 10^−2 concentration. At the time of experiment four 10-fold serial dilutions were made using complete medium. Aliquots of 10 µL of these different drug dilutions were added to the appropriate micro-titer wells already containing 90 µL of medium, resulting in the required final drug concentrations. After compound addition, plates were incubated at standard conditions for 48 h. and assay was terminated by the addition of cold trichloroacetic acid (TCA). Cells were fixed in situ by the gentle addition of […] (final concentration, 10% TCA) and incubated for 60 min at 4 °C. The supernatant was discarded; the plates were washed five times with tap water and air dried.
(§2) Sulforhodamine B (SRB) solution (50 µL) at 0.4% (w/v) in 1% acetic acid was added to each of the wells, and plates were incubated for 20 min at room temperature. After staining, unbound dye was recovered and the residual dye was removed by washing five times with 1% acetic acid. The plates were air dried. Bound stain was subsequently eluted with 10 mM trizma base, and the absorbance was read on an ELISA plate reader at a wavelength of 540 nm with 690 nm reference wavelength. All the tests were repeated in at least three independent experiments at the concentrations of 10, 20, 40 and 80 µg/mL [57].

[2] = system: HT-29 human colon cancer cell line; experiment: cells; assay type: cell-based; conditions: for anticancer activity compared with standard drug adriamycin, HT-29: HT-29 (human colon cancer) cell line; for GI50: SRB assay, 48 h, HT-29
Method: as §1, §2

[3] = system: Hep-G2 human hepatoma cell line; experiment: cells; assay type: cell-based; conditions: for GI50: SRB assay, 48 h, Hep-G2
Method: as §1, §2

[4] = system: MCF-7 human breast cancer cell line; experiment: cells; assay type: cell-based; conditions: 48 h
Method: as §1, §2

[5] = system: MG-63 human osteosarcoma cell line; experiment: cells; assay type: cell-based; conditions: SRB assay, 48 h
Method: as §1, §2

[6] = system: SK-MEL-2 human melanoma cancer cell line; experiment: cells; assay type: cell-based; conditions: SRB assay, 48 h, read-out: GI50 SKMEL-2
Method: as §1, §2

in vitro = assay type: cell-based; conditions: mouse; SRB assay, normal murine embryonic fibroblast cell line; read-out: GI50 NIH/3T3
Method: as §1, §2

[7] = system: NIH/3T3 normal murine embryonic fibroblast cell line; experiment: in vitro; assay type: cell-based; conditions: SRB assay
Method: as §1, §2

[8] = system: SK-MEL-2 human melanoma cancer cell line; assay type: cell-based; conditions: at the GI50 concentration, in comparison to control cells
[9] = system: IMR-32 neuroblastoma cell line; assay type: cell-based, human; conditions: at the GI50 concentration, in contrast to control cells

| SMILES | GI50 ([1]; Homo sapiens) | anticancer activity compared with standard drug adriamycin, HT-29 [2] | GI50 ([2]; Homo sapiens) | anticancer activity compared with standard drug Adriamycin, Hep-G2 ([3]; Hep-G2 (human hepatoma) cell line) | GI50 ([3]; Homo sapiens, HepG2) | GI50 ([4]; Homo sapiens, MCF7, SRB assay) | GI50 ([5]; Homo sapiens) | GI50 ([6]; Homo sapiens) | GI50 (in vitro) | melting point | GI50 [1] | GI50 [2] | GI50 [3] | GI50 ([4]; SRB assay) | GI50 [5] | GI50 [6] | GI50 [7] | morphological changes in SK-MEL-2 cancer cell lines [8] | morphological changes in IMR-32 cancer cells [9] |
| --- | --- | --- | --- | --- | --- | --- | --- | --- | --- | --- | --- | --- | --- | --- | --- | --- | --- | --- | --- |
| CCOP(=O)(OCC)C(N/N=C1\C(=O)Nc2ccccc21)c1ccc(O)c(C)c1 (stereo not drawn) [4l, (Z)-Diethyl (4-hydroxy-3-methylphenyl)(2-(2-oxoindolin-3-ylidene)hydrazinyl)methylphosphonate] | 89.8 µM | equipotent | < 0.1 µM | equipotent | < 0.1 µM | 78.4 µM | < 0.1 µM | 76.4 µM | > 250 µM | 190 to 192 °C |  |  |  |  |  |  |  |  |  |
| CCOP(=O)(OCC)C(NN=C1C(=O)Nc2ccccc21)c1ccc(O)c(OC)c1 (stereo not drawn) [4g, Diethyl(4-hydroxy-3-methoxyphenyl)(2-(2-oxoindolin-3-ylidene)hydrazinyl)methylphosphonates] |  |  |  |  |  |  |  |  |  |  | > 100 µM | 12.2 µM | 32 µM | > 100 µM | < 0.1 µM | 24 µM | > 250 µM | cell detachment, cell wall deformation, cell shrinkage and reduced number of viable cells |  |
| CCOP(=O)(OCC)C(NN=C1C(=O)Nc2ccccc21)c1ccc(O)cc1 (stereo not drawn) [4f, Diethyl(4-hydroxyphenyl)(2-(2-oxoindolin-3-ylidene)hydrazinyl)methylphosphonate] | < 0.1 µM | equipotent | < 0.1 µM |  | 12.2 µM | > 100 µM | < 0.1 µM | 51.6 µM | > 250 µM | 140 to 142 °C |  |  |  |  |  |  |  |  | cell detachment, cell wall deformation, cell shrinkage and reduced number of viable cells |
| CCOP(=O)(OCC)C(N/N=C1\C(=O)Nc2ccccc21)c1ccccc1O (stereo not drawn) [4k, (Z)-Diethyl (2-hydroxyphenyl)(2-(2-oxoindolin-3-ylidene)hydrazinyl)methylphosphonate] | 44.1 µM |  | 26.1 µM |  | 11.7 µM | > 100 µM | < 0.1 µM | 66.2 µM | > 250 µM | 152 to 154 °C |  |  |  |  |  |  |  |  |  |
